Test results from patent US10174002B2, “Pyridine derivatives as CFTR modulators” (NuBridge BioSciences, priority 2015, dated 2019).

Target: T1, ΔF508 mutant CFTR (Homo sapiens, UniProt P13569, DEL508-508)
T1 construct: expressed in transfected cells; host or cells: Fischer rat thyroid (FRT) cells, co-expressing the halide-sensitive YFP-H148Q/I152L
Test: Fluorescence Assay of ΔF508 mutant CFTR activity (halide-sensitive YFP quenching by iodide influx in FRT cells)
Type: cell-based
Set-up: key: fold of mean activity with forskolin alone (I− quenching rate)
Conditions: test compounds 20 μM with forskolin 20 μM, 20 min; FRT cells expressing ΔF508-CFTR and YFP-H148Q/I152L, incubated at 27° C. 20-24 h; rate of fluorescence quenching by I−, normalized to mean activity with forskolin alone
Description: The ΔF508 mutant CFTR activities of the CFTR modulators are detected using the Fluorescence Assay developed by Pedemonte (Pedemonte N., et al., Antihypertensive 1,4-dihydropyridines as correctors of the cystic fibrosis transmembrane conductance regulator channel gating defect caused by cystic fibrosis mutations, Mol. Pharmacol., 2005, 68, 1736-1746).
Fischer rat thyroid (FRT) cells, stably transfected with ΔF508 were retransfected with the YFP-H148Q/I152L fluorescent protein. The cells were plated (100,000 cells/well) on black 96-well microplates with clear plastic bottom (Corning Life Sciences, Acton, Mass.).
The 96-well microplates containing FRT cells expressing F508-CFTR and the halide-sensitive YFP were incubated at 27° C. for 20 to 24 h to allow rescue of the mutant protein to the plasma membrane. After incubation, cells were washed with PBS (containing 137 mM NaCl, 2.7 mM KCl, 8.1 mM Na2HPO4, 1.5 mM KH2PO4, 1 mM CaCl2, and 0.5 mM MgCl2) and stimulated for 20 min with forskolin (20 μM) and test compounds (20 μM) in a final volume of 60 μl. Microplates were then transferred to a microplate reader for CFTR activity determination. Each assay consisted of a continuous 14-s fluorescence reading (5 points per second) with 2 s before and 12 s after injection of 165 μl of an iodide-containing solution (PBS with Cl^− replaced by I^−). Final iodide concentration in the wells was 100 mM. […] To determine I^− influx rate, the final 11 s of the data for each well were fitted with an exponential function to extrapolate initial slope. CFTR activity was determined by measuring the rate of fluorescence quenching induced by extracellular addition of I^−. Data are normalized to the mean activity measured in the presence of forskolin alone.

T1 sequence (P13569 with tags, fused parts or gaps DEL508-508): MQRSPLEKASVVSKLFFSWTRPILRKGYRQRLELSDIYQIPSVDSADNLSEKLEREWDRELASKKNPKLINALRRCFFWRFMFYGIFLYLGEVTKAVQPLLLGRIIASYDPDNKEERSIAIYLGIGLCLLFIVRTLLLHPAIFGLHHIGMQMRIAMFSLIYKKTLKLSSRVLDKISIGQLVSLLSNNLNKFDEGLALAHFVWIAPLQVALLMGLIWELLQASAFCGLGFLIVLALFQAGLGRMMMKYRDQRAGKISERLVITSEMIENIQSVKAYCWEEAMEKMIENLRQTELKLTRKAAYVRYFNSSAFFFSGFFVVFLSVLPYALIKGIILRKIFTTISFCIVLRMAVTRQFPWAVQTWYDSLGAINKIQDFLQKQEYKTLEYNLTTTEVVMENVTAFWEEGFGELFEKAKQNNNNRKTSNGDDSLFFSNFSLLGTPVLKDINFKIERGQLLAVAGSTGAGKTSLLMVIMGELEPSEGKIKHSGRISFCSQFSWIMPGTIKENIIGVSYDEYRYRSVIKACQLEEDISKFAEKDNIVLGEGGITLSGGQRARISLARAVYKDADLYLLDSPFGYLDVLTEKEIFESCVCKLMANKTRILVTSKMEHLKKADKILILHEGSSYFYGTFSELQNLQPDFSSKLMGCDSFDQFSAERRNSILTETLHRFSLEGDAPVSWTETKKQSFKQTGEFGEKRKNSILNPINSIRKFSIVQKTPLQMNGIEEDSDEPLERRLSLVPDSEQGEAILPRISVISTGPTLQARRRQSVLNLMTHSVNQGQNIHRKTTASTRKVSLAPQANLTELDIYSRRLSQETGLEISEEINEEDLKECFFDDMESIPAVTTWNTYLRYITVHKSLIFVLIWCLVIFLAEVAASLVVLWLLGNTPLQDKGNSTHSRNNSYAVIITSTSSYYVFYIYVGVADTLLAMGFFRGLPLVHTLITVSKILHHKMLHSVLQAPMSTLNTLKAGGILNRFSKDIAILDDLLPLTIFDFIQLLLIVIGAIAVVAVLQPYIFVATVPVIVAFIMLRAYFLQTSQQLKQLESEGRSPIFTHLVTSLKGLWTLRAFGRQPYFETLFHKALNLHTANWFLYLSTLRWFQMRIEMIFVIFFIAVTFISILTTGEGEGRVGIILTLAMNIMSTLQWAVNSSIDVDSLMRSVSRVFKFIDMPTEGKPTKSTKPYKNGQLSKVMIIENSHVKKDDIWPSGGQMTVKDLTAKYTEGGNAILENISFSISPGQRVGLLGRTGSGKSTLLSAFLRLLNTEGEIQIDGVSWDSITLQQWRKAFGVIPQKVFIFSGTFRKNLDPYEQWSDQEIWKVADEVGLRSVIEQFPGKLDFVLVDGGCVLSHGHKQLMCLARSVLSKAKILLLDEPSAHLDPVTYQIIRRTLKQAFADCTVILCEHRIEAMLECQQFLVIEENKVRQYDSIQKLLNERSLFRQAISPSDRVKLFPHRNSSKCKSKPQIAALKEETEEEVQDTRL

Compound	CFTR Activity
Cl.NCC(CCl)COc1ccncc1NC(=O)c1nc(-c2c(F)cccc2F)c(F)cc1N (stereo not shown) [Example 34, 3-amino-N-(4-(3-amino-2-(chloromethyl)propoxy)pyridin-3-yl)-6-(2,6-difluorophenyl)-5-fluoropicolinamide hydrochloride]	2.3
Cl.NCCCCOc1ccncc1NC(=O)c1nc(-c2c(F)cccc2F)c(F)cc1N [Example 36, 3-amino-N-(4-(4-aminobutoxy)pyridin-3-yl)-6-(2,6-difluorophenyl)-5-fluoropicolinamide hydrochloride]	2.3
Cl.O=C(Nc1cnccc1OC1CCCNCC1)c1nc(-c2c(F)cccc2F)ccc1F (stereo not shown) [Example 40, N-(4-(azepan-4-yloxy)pyridin-3-yl)-6-(2,6-difluorophenyl)-3-fluoropicolinamide hydrochloride]	1.8
COc1cccc(F)c1-c1nc(C(=O)Nc2cnccc2OC2CCCNCC2)ccc1F.Cl (stereo not shown) [Example 41, N-(4-(azepan-4-yloxy)pyridin-3-yl)-5-fluoro-6-(2-fluoro-6-methoxyphenyl)picolinamide hydrochloride]	2.0
Cl.O=C(Nc1cnccc1OCC1CCNCC1)c1ccc(C(F)(F)F)c(-c2c(F)cccc2F)n1 [Example 43, 6-(2,6-difluorophenyl)-N-(4-(piperidin-4-ylmethoxy)pyridin-3-yl)-5-(trifluoromethyl)picolinamide hydrochloride]	2.3
Cl.O=C(Nc1cnccc1OCC1CNC1)c1ccc(C(F)(F)F)c(-c2c(F)cccc2F)n1 [Example 44, N-(4-(azetidin-3-ylmethoxy)pyridin-3-yl)-6-(2,6-difluorophenyl)-5-(trifluoromethyl)picolinamide hydrochloride]	2.1
O=C(Nc1cnccc1OCC1CCOCC1)c1ccc(C(F)(F)F)c(-c2c(F)cccc2F)n1 [Example 47, 6-(2,6-difluorophenyl)-N-(4-((tetrahydro-2H-pyran-4-yl)methoxy)pyridin-3-yl)-5-(trifluoromethyl)picolinamide]	0.4
Cl.NCC(CCl)COc1ccncc1NC(=O)c1ccc(C(F)(F)F)c(-c2c(F)cccc2F)n1 (stereo not shown) [Example 54, N-(4-(3-amino-2-(chloromethyl)propoxy)pyridin-3-yl)-6-(2,6-difluorophenyl)-5-(trifluoromethyl)picolinamide hydrochloride]	1.8
Cl.NCC(CO)COc1ccncc1NC(=O)c1ccc(F)c(-c2c(F)cccc2F)n1 (stereo not shown) [Example 56, N-(4-(3-amino-2-(hydroxymethyl)propoxy)pyridin-3-yl)-6-(2,6-difluorophenyl)-5-fluoropicolinamide hydrochloride]	2.4
Cl.NCC(CO)COc1ccncc1NC(=O)c1nc(-c2c(F)cccc2F)c(F)cc1N (stereo not shown) [Example 57, 3-amino-N-(4-(3-amino-2-(hydroxymethyl)propoxy)pyridin-3-yl)-6-(2,6-difluorophenyl)-5-fluoropicolinamide hydrochloride]	2.1
Cl.NCC(CO)COc1ccncc1NC(=O)c1ccc(C(F)(F)F)c(-c2c(F)cccc2F)n1 (stereo not shown) [Example 58, N-(4-(3-amino-2-(hydroxymethyl)propoxy)pyridin-3-yl)-6-(2,6-difluorophenyl)-5-(trifluoromethyl)picolinamide hydrochloride]	2.6

Next, values leading:

CFTR Activity	Compound
2.1	Cl.Nc1cc(F)c(-c2c(F)cccc2F)nc1C(=O)Nc1cnccc1OCC1CCCNC1 (stereo not shown) [Example 35, 3-amino-6-(2,6-difluorophenyl)-5-fluoro-N-(4-(piperidin-3-ylmethoxy)pyridin-3-yl)picolinamide hydrochloride]
4.8	Cl.Nc1cc(F)c(-c2c(F)cccc2F)nc1C(=O)Nc1cnccc1OC1CCCC(N)C1 (stereo not shown) [Example 37, 3-amino-N-(4-((3-aminocyclohexyl)oxy)pyridin-3-yl)-6-(2,6-difluorophenyl)-5-fluoropicolinamide hydrochloride]
1.7	Cl.Nc1cc(F)c(-c2ccccc2)nc1C(=O)Nc1cnccc1OC1CCNC1 (stereo not shown) [Example 38, 3-amino-5-fluoro-6-phenyl-N-(4-(pyrrolidin-3-yloxy)pyridin-3-yl)picolinamide hydrochloride]
1.0	Cl.O=C(Nc1cnccc1OC1CCNCC1)c1ccc(F)c(-c2ccncc2)n1 [Example 39, 3-fluoro-N-(4-(piperidin-4-yloxy)pyridin-3-yl)-[2,4′-bipyridine]-6-carboxamide hydrochloride]
2.7	Cl.O=C(Nc1cnccc1OC1CCCNCC1)c1ccc(C(F)(F)F)c(-c2c(F)cccc2F)n1 (stereo not shown) [Example 42, N-(4-(azepan-4-yloxy)pyridin-3-yl)-6-(2,6-difluorophenyl)-5-(trifluoromethyl)picolinamide hydrochloride]
2.7	Cl.O=C(Nc1cnccc1OC1CCNCC1)c1ccc(C(F)(F)F)c(-c2c(F)cccc2F)n1 [Example 45, 6-(2,6-difluorophenyl)-N-(4-(piperidin-4-yloxy)pyridin-3-yl)-5-(trifluoromethyl)picolinamide hydrochloride]
3.1	Cl.N[C@H]1CC[C@H](Oc2ccncc2NC(=O)c2ccc(C(F)(F)F)c(-c3c(F)cccc3F)n2)CC1 [Example 46, N-(4-(((1r,4r)-4-aminocyclohexyl)oxy)pyridin-3-yl)-6-(2,6-difluorophenyl)-5-(trifluoromethyl)picolinamide hydrochloride]
5.2	Cl.Nc1cc(C(F)(F)F)c(-c2c(F)cccc2F)nc1C(=O)Nc1cnccc1OC1CCCNCC1 (stereo not shown) [Example 48, 3-amino-N-(4-(azepan-4-yloxy)pyridin-3-yl)-6-(2,6-difluorophenyl)-5-(trifluoromethyl)picolinamide hydrochloride]
4.3	Cl.Nc1cc(C(F)(F)F)c(-c2c(F)cccc2F)nc1C(=O)Nc1cnccc1OCC1CCNCC1 [Example 49, 3-amino-6-(2,6-difluorophenyl)-N-(4-(piperidin-4-ylmethoxy)pyridin-3-yl)-5-(trifluoromethyl)picolinamide hydrochloride]
2.7	Cl.Nc1cc(C(F)(F)F)c(-c2c(F)cccc2F)nc1C(=O)Nc1cnccc1OCC1CNC1 [Example 50, 3-amino-N-(4-(azetidin-3-ylmethoxy)pyridin-3-yl)-6-(2,6-difluorophenyl)-5-(trifluoromethyl)picolinamide hydrochloride]
4.8	Cl.Nc1cc(C(F)(F)F)c(-c2c(F)cccc2F)nc1C(=O)Nc1cnccc1OC1CCNCC1 [Example 51, 3-amino-6-(2,6-difluorophenyl)-N-(4-(piperidin-4-yloxy)pyridin-3-yl)-5-(trifluoromethyl)picolinamide hydrochloride]
5.4	Cl.Nc1cc(C(F)(F)F)c(-c2c(F)cccc2F)nc1C(=O)Nc1cnccc1O[C@H]1CC[C@H](N)CC1 [Example 52]
2.5	Cl.Nc1cc(C(F)(F)F)c(-c2ccccc2)nc1C(=O)Nc1cnccc1OC1CCNC1 (stereo not shown) [Example 53, 3-amino-6-phenyl-N-(4-(pyrrolidin-3-yloxy)pyridin-3-yl)-5-(trifluoromethyl)picolinamide hydrochloride]
5.5	Cl.NCC(CCl)COc1ccncc1NC(=O)c1nc(-c2c(F)cccc2F)c(C(F)(F)F)cc1N (stereo not shown) [Example 55, 3-amino-N-(4-(3-amino-2-(chloromethyl)propoxy)pyridin-3-yl)-6-(2,6-difluorophenyl)-5-(trifluoromethyl)picolinamide hydrochloride]
